Tests used:
mPTPB = mPTPB (Mycobacterium tuberculosis, UniProt I6WXK4); test: mPTPB catalyzed para-nitrophenyl phosphate hydrolysis inhibition; type: biochemical; details: for activity at 100 μM: 100 μM compound
[1] = tested on: mPTPB transfected Raw264.7 cells; type: cell-based; details: 10 μM
human PTPs = test: Specificity for mPTPB over panel of human PTPs; type: biochemical; details: mPTPB versus PTP1B, SHP2, SHP1, PTP-Meg2, CD45, PTPε, VHR, Laforin

mPTPB, sequence (I6WXK4 whole entry, looked up): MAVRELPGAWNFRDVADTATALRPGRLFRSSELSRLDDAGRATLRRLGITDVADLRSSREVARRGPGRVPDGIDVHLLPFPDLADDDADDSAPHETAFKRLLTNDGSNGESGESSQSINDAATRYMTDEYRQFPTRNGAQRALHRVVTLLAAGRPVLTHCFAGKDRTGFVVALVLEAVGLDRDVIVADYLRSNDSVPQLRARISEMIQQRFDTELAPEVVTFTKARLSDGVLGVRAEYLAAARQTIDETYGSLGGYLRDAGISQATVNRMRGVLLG

O=C(O)c1cc2[nH]c(=O)oc2cc1O [compound 6]
activity at 100 μM (mPTPB; mPTPB): did not exhibit activity

O=C(O)c1cc2nc(-c3ccccc3)oc2cc1O [compound 9]
IC50 (mPTPB): 20 to 30 µM

O=C(O)c1cc2sc(Nc3ccccc3)nc2cc1O [11a]
fold more active than 11b (mPTPB): 3 fold | effects on Erk1/2 and Akt phosphorylation [1]: has no such effects

O=C(O)c1cc2sc(Nc3cccc(Br)c3)nc2cc1O [11h]
Ki (mPTPB): 2.2 ± 0.1 µM | fold increase in potency in comparison to 11a (mPTPB): 12 fold | mode of inhibition (mPTPB; mPTPB, against pNPP): noncompetitive inhibitor | fold improvement of salicylic acid mPTPB inhibitory activity (mPTPB; mPTPB, versus salicylic acid): 27,500 fold | Akt phosphorylation ([1]; 5 μM, dose dependent): decreased | Erk1/2 phosphorylation ([1]; 5 μM, dose dependent): increased | fold preference for mPTPB against human PTPs (human PTPs): over 20 fold

O=C(O)CN1CC(=O)Oc2cc(O)c(C(=O)O)cc21 [compound 8]
activity at 100 μM (mPTPB; mPTPB): did not exhibit activity

O=C(O)c1cc2[nH]c(-c3ccccc3)nc2cc1O [compound 10]
IC50 (mPTPB): 20 to 30 µM

O=C1COc2cc(O)c(C(=O)O)cc2N1 [compound 7]
activity at 100 μM (mPTPB; mPTPB): did not exhibit activity

From PMC4259018 (MedChemComm, 2014)
